Experimental data from patent US20200339604A1, “PYRAZOLOPYRIMIDINE COMPOUNDS AS JAK INHIBITORS” (Genentech, Inc., priority 2018, published 2020).
Where two headings read alike, the source gives them in different places.

How the values were obtained:
[1] = target: T1, isolated recombinant JAK1 kinase domain (Homo sapiens, UniProt P23458); assay: JAK enzyme assay, JAK1 kinase domain (Caliper LabChip); type: biochemical; conditions: 1.5 nM JAK1, ATP 25 μM, Morrison tight binding model
T1 construct: isolated recombinant JAK1 and JAK2 kinase domain
T1 sequence (P23458 875-1153 limits assumed): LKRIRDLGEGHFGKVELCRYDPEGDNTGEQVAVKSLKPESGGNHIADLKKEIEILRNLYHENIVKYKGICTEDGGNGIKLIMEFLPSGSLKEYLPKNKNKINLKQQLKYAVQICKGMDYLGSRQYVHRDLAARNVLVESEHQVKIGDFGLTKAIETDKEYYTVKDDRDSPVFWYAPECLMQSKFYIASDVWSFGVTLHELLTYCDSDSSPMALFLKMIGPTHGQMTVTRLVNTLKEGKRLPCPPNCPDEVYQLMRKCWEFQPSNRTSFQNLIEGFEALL
Experimental: (§1) JAK Enzyme Assays were Carried Out as Follows:
(§2) The activity of the isolated recombinant JAK1 and JAK2 kinase domain was measured by monitoring phosphorylation of a peptide derived from JAK3 ([…] fluorescently labeled on the N-terminus with 5-carboxyfluorescein) using the Caliper LabChip® technology (Caliper Life Sciences, Hopkinton, Mass.). To determine inhibition constants (K), compounds were diluted serially in DMSO and added to 50 μL kinase reactions containing purified enzyme (1.5 nM JAK1, or 0.2 nM JAK2), 100 mM HEPES buffer (pH 7.2), 0.015% Brij-35, 1.5 μM peptide substrate, ATP (25 μM), 10 mM MgCl2, 4 mM DTT at a final DMSO concentration of 2%.
(§3) Reactions were incubated at 22° C. in 384-well polypropylene microtiter plates for 30 minutes and then stopped by addition of 25 µL of an EDTA containing solution (100 mM HEPES buffer (pH 7.2), 0.015% Brij-35, 150 mM EDTA), resulting in a final EDTA concentration of 50 mM. After termination of the kinase reaction, the proportion of phosphorylated product was determined as a fraction of total peptide substrate using the Caliper LabChip® 3000 according to the manufacturer's specifications. K values were then determined using the Morrison tight binding model (Morrison, J. F., Biochim. Biophys. Acta. 185:269-296 (1969); William, J. W. and Morrison, J. F., Meth. Enzymol., 63:437-467 (1979)) modified for ATP-competitive inhibition [Ki=Ki, app/(1+[ATP]/Km,app)].

[2] = target: T2, isolated recombinant JAK2 kinase domain (Homo sapiens, UniProt O60674); assay: JAK enzyme assay, JAK2 kinase domain (Caliper LabChip); type: biochemical; conditions: 0.2 nM JAK2, ATP 25 μM, Morrison tight binding model
T2 construct: isolated recombinant JAK1 and JAK2 kinase domain
T2 sequence (O60674 849-1124 limits assumed): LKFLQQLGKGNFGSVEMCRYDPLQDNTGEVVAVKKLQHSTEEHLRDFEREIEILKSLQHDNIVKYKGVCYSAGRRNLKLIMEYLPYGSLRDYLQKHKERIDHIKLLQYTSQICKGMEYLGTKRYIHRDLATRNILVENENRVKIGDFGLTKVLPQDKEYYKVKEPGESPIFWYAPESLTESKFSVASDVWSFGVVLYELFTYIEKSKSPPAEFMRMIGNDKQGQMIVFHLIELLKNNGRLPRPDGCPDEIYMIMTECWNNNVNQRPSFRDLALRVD
Experimental: as §1, §2, §3

[3] = system: JAK1-dependent STAT6 phosphorylation downstream of IL-13 stimulation, BEAS-2B human bronchial epithelial cells; assay: JAK1 pathway assay in cell lines: IL-13 stimulated STAT6 phosphorylation in BEAS-2B cells (MSD); type: cell-based; conditions: IL-13 stimulation 15 min at EC90, read-out: IL-13 p-STAT6 BEAS-2B IC50
Experimental: JAK1 Pathway Assay in Cell Lines was Carried Out as Follows:
Inhibitor potency (EC50) was determined in cell-based assays designed to measure JAK1 dependent STAT phosphorylation. As noted above, inhibition of IL-4, IL-13, and IL-9 signaling by blocking the Jak/Stat signaling pathway can alleviate asthmatic symptoms in pre-clinical lung inflammation models (Mathew et al., 2001, J Exp Med 193(9): 1087-1096; Kudlacz et. al., 2008, Eur J. Pharmacol 582(1-3): 154-161).
In one assay approach, TF-1 human erythroleukemia cells obtained from the American Type Culture Collection (ATCC; Manassas, Va.) were used to measure JAK1-dependent STAT6 phosphorylation downstream of IL-13 stimulation. Prior to use in the assays, TF-1 cells were starved of GM-CSF overnight in OptiMEM medium (Life Technologies, Grand Island, N.Y.) supplemented with 0.5% charcoal/dextran stripped fetal bovine serum (FBS), 0.1 mM non-essential amino acids (NEAA), and 1 mM sodium pyruvate. The assays were run in 384-well plates in serum-free OptiMEM medium using 300,000 cells per well. In a second assay approach, BEAS-2B human bronchial epithelial cells obtained from ATCC were plated at 100,000 cells per well of a 96-well plate one day prior to the experiment. The BEAS-2B assay was run in complete growth medium (bronchial epithelial basal medium plus bulletkit; Lonza; Basel, Switzerland).
Test compounds were serially diluted 1:2 in DMSO and then diluted 1:50 in medium just before use. Diluted compounds were added to the cells, for a final DMSO concentration of […], and incubated for 30 m (for the TF-1 assay) or […] (for the BEAS-2B assay) at 37° C. Then, cells were stimulated with human recombinant cytokine at their respective EC90 concentrations, as previously determined for each individual lot. Cells were stimulated with IL-13 (R&D Systems, Minneapolis, Minn.) for 15 min at 37° C. The TF-1 cell reactions were stopped by the direct addition of 10× lysis buffer (Cell Signaling Technologies, Danvers, Mass.), whereas the BEAS-2B cell incubations were halted by the removal of medium and addition of 1× lysis buffer. The resultant samples were frozen in the plates at −80° C. Compound mediated inhibition of STAT6 phosphorylation was measured in the cell lysates using MesoScale Discovery (MSD) technology (Gaithersburg, Md.).

Row | Compound | Ki [1] [nM] | Ki [2] [nM] | IC50 ([3]; Homo sapiens, BEAS-2B, […]) [nM] | IC50 [3] [nM]
1 | O=C(Nc1cn(C2CCCCC2=O)nc1-c1cc(Cl)ccc1OC(F)F)c1cnn2cccnc12 (racemic) [Example 1, N-[3-[5-chloro-2-(difluoromethoxy)phenyl]-1-(2-oxocyclohexyl)pyrazol-4-yl] pyrazolo [1,5-a] pyrimidine-3-carboxamide] | 1.1 | 1.4 | 33 | 
2 | CN1CCC(n2cc(NC(=O)c3cnn4cccnc34)c(-c3cc(Cl)c(C#N)cc3OC(F)F)n2)C1=O (racemic) [Example 22, N-[3-[5-chloro-4-cyano-2-(difluoromethoxy)phenyl]-1-(1-methyl-2-oxo-pyrrolidin-3-yl)pyrazol-4-yl]pyrazolo[1,5-a]pyrimidine-3-carboxamide] | 2.5 | 4 | 98 | 
3 | O=C(Nc1cn(C2CCOC2=O)nc1-c1cc(Cl)ccc1OC(F)F)c1cnn2cccnc12 (racemic) [Example 25, N-[3-[5-chloro-2-(difluoromethoxy)phenyl]-1-(2-oxotetrahydrofuran-3-yl)pyrazol-4-yl]pyrazolo[1,5-a]pyrimidine-3-carboxamide; formic acid] | 0.37 | 0.21 | 19 | 
4 | O=C(Nc1cn(C2CCCC2=O)nc1-c1cc(Cl)ccc1OC(F)F)c1cnn2cccnc12 (racemic) [Example 35, N-[3-[5-chloro-2-(difluoromethoxy)phenyl]-1-(2-oxocyclopentyl)pyrazol-4-yl]pyrazolo[1,5-a]pyrimidine-3-carboxamide] | 0.79 | 0.45 | 16 | 
5 | O=C(Nc1cn([C@H]2CCNC2=O)nc1-c1cc(Cl)ccc1OC(F)F)c1cnn2cccnc12 (single isomer, unassigned) [Example 4, N-[3-[5-chloro-2-(difluoromethoxy)phenyl]-1-(2-oxopyrrolidin-3-yl)pyrazol-4-yl]pyrazolo[1,5-a]pyrimidine-3-carboxamide] | 0.78 | 0.4 | 24 | 
6 | O=C(Nc1cn(C2CCNC2=O)nc1-c1cc(Cl)ccc1OC(F)F)c1cnn2cccnc12 (single isomer, unassigned) [Example 5, N-[3-[5-chloro-2-(difluoromethoxy)phenyl]-1-(2-oxopyrrolidin-3-yl)pyrazol-4-yl]pyrazolo[1,5-a]pyrimidine-3-carboxamide] | 1.8 | 0.48 | 40 | 
7 | CSc1ccc(OC(F)F)c(-c2nn(C3CCN(C)C3=O)cc2NC(=O)c2cnn3cccnc23)c1 (single isomer, unassigned) [Example 6, N-[3-[2-(difluoromethoxy)-5-methylsulfanyl-phenyl]-1-(1-methyl-2-oxo-pyrrolidin-3-yl)pyrazol-4-yl]pyrazolo[1,5-a]pyrimidine-3-carboxamide] | 0.18 | 0.24 |  | 11
8 | CSc1ccc(OC(F)F)c(-c2nn(C3CCN(C)C3=O)cc2NC(=O)c2cnn3cccnc23)c1 (single isomer, unassigned) [Example 7, N-[3-[2-(difluoromethoxy)-5-methylsulfanyl-phenyl]-1-(1-methyl-2-oxo-pyrrolidin-3-yl)pyrazol-4-yl]pyrazolo[1,5-a]pyrimidine-3-carboxamide] | 0.84 | 0.31 |  | 42
9 | CN1CCC(n2cc(NC(=O)c3cnn4cccnc34)c(-c3cc(OC(F)F)ccc3OC(F)F)n2)C1=O (single isomer, unassigned) [Example 8, N-[3-[2,5-bis(difluoromethoxy)phenyl]-1-(1-methyl-2-oxo-pyrrolidin-3-yl)pyrazol-4-yl]pyrazolo[1,5-a]pyrimidine-3-carboxamide] | 0.3 | 0.84 |  | 20
10 | CN1CCC(n2cc(NC(=O)c3cnn4cccnc34)c(-c3cc(OC(F)F)ccc3OC(F)F)n2)C1=O (single isomer, unassigned) [Example 9, N-[3-[2,5-bis(difluoromethoxy)phenyl]-1-(1-methyl-2-oxo-pyrrolidin-3-yl)pyrazol-4-yl]pyrazolo[1,5-a]pyrimidine-3-carboxamide] | 2.1 | 1.1 |  | 67
11 | CN1CCC(n2cc(NC(=O)c3cnn4cccnc34)c(-c3cc4c(cc3OC(F)F)NCCO4)n2)C1=O (single isomer, unassigned) [Example 10, N-[3-[6-(difluoromethoxy)-3,4-dihydro-2H-1,4-benzoxazin-7-yl]-1-(1-methyl-2-oxo-pyrrolidin-3-yl)pyrazol-4-yl]pyrazolo[1,5-a]pyrimidine-3-carboxamide] | 0.37 | 0.58 | 190 | 
12 | CN1CCC(n2cc(NC(=O)c3cnn4cccnc34)c(-c3cc4c(cc3OC(F)F)NCCS4)n2)C1=O (single isomer, unassigned) [Example 12] | 0.15 | 0.11 |  | 
13 | O=C(Nc1cn(C2CCN(CCN3CCOCC3)C2=O)nc1-c1cc(Cl)ccc1OC(F)F)c1cnn2cccnc12 (single isomer, unassigned) [Example 15, N-[3-[5-chloro-2-(difluoromethoxy)phenyl]-1-[1-(2-morpholinoethyl)-2-oxo-pyrrolidin-3-yl]pyrazol-4-yl]pyrazolo[1,5-a]pyrimidine-3-carboxamide] | 4.4 | 1 |  | 
14 | O=C(Nc1cn(C2CCOC2=O)nc1-c1cc2c(cc1OC(F)F)NCCS2)c1cnn2cccnc12 (single isomer, unassigned) [Example 33, N-[3-[6-(difluoromethoxy)-3,4-dihydro-2H-1,4-benzothiazin-7-yl]-1-(2-oxotetrahydrofuran-3-yl)pyrazol-4-yl]pyrazolo[1,5-a]pyrimidine-3-carboxamide] | 0.17 | 0.095 |  | 
15 | O=C(Nc1cn(C2CCOC2=O)nc1-c1cc2c(cc1OC(F)F)NCCS2)c1cnn2cccnc12 (single isomer, unassigned) [Example 34, N-[3-[6-(difluoromethoxy)-3,4-dihydro-2H-1,4-benzothiazin-7-yl]-1-(2-oxotetrahydrofuran-3-yl)pyrazol-4-yl]pyrazolo[1,5-a]pyrimidine-3-carboxamide] | 0.092 | 0.056 |  | 
16 | O=C(Nc1cn(C2CCOC2=O)nc1-c1cc2c(cc1OC(F)F)NCCO2)c1cnn2cccnc12 (single isomer, unassigned) [Example 38, N-[3-[6-(difluoromethoxy)-3,4-dihydro-2H-1,4-benzoxazin-7-yl]-1-(2-oxotetrahydrofuran-3-yl)pyrazol-4-yl]pyrazolo[1,5-a]pyrimidine-3-carboxamide] | 0.6 | 0.42 |  | 
17 | O=C(Nc1cn(C2CCOC2=O)nc1-c1cc2c(cc1OC(F)F)NCCO2)c1cnn2cccnc12 (single isomer, unassigned) [Example 39, N-[3-[6-(difluoromethoxy)-3,4-dihydro-2H-1,4-benzoxazin-7-yl]-1-(2-oxotetrahydrofuran-3-yl)pyrazol-4-yl]pyrazolo[1,5-a]pyrimidine-3-carboxamide; formic acid] | 0.32 | 0.29 |  | 
